Entries after “also recorded” stand apart in the source; their conditions may differ.
Columns and labels:
[1] = rat, in vivo, iv, 10 mg/kg
Experimental: In the first IV administration study of MP470 free base, six groups of 6 rats were to be exposed to either vehicle alone or MP470 at 10, 20, 40, 80, or 160 mg/kg. Dosing was administered via a tail vein over approximately 30 minutes. Animals were observed immediately and 10 minutes and one hour after dosing, and daily thereafter for 4 additional days. […] Red urine and lethargy were present at 1 hour post dosing, but animals recovered and appeared normal thereafter. […] All other animals were euthanized and necropsied at day 4 appeared normal.

[2] = log P by shake-flask octanol/water partitioning; format: physicochemical; details: aqueous phase citrate buffer pH 2
Experimental: The log P value for MP470 was determined by the traditional shake-flask method with octanol/water partitioning. Citrate buffer at pH 2 was the aqueous phase. The concentration of the solute in the organic phase was analyzed by HPLC analysis of MP470 with respect to a calibration curve ranging from 0.2 to 200 μg/mL MP470. The majority of MP470 was found in the organic phase. The log P value of MP470 was determined to be 2.3.

[3] = pKa by mixed-solvent (methanol-water) method; format: physicochemical
Experimental: The apparent pKa in aqueous solution was extrapolated from the determined pKa values (the apparent ionization constants in methanol-water solvent) plotted versus the percent methanol used. The apparent pKa of MP470 was determined to be 6.7.

[4] = both, beagle, dog, in vivo, 5 days
Experimental: In the first study, 2 doses of MP470 were tested, a low dose of 10 mg/kg followed 48 hours later by a dose of 20 mg/kg. Dosage escalation stopped after the 20 mg/kg dose due to observations of adverse clinical signs. After the second dose, the animals were observed everyday for 3 additional days for adverse clinical signs. Over the course of the 5 days of study both dogs gained weight. […] The female dog experienced retching immediately after dosing. Upon administration of the 20 mg/kg dose both the female and male dog experienced unacceptable adverse effects. After three more days of observation both dogs were euthanized and necropsy was performed. The necropsy observations considered abnormal include thrombus observed in the dosing veins of both dogs and possible mild venous congestion in the meningeal vein between brain hemispheres and in the venous sinus on cranial floor of the male animal. From this study the maximally tolerated dose in beagle dogs was determined to be 20 mg/kg.

[5] = system: OVCAR-3 ovarian cancer cells; experiment: OVCAR-3 ovarian cancer tumor model in nude mice; format: in vivo
Experimental: MP470 and MP470 HCl were tested against different tumor types in athymic nude mice as summarized below (Table 8). Various formulations and routes were evaluated. HT-29 colorectal cancer cells and SB-CL2 melanoma cells were implanted subcutaneously, while A549 lung cancer cells, MiaPaCa-2 pancreatic cancer cells, TT medullary thyroid cancer cells, and OVCAR-3 ovarian cancer cells were implanted […] in the hind flank of mice. All animals were allowed to develop medium-sized (80-125 mg) tumors, before initiation of dosing. Tumor volume and mouse bodyweight were followed over the course of the study.
OVCAR-3 Ovarian Cancer Model—Forty-two nude mice were implanted subcutaneously with OVCAR-3 ovarian carcinoma, the hydrochloride salt of MP470 (MP470.HCl) was formulated in 100% corn oil and delivered orally. MP470.HCl, cisplatin, and irinotecan were administered to animals alone or in combination. When administered alone, MP470.HCl was given qd at 100 or 200 mg/kg, irinotecan was given q3d at 20 mg/kg, and cisplatin was given q7d at 5 mg/kg. In combination studies, 100 mg/kg MP470.HCl was given qd and combined with 20 mg/kg irinotecan given q3d or 5 mg/kg cisplatin given q7d. One animal in the 200 mg/kg MP470.HCl group died on Day 1, while five animals in the MP470.HCl/cisplatin combination group died (one on Day 5, Day 6, Day 7, Day, 20, and Day 27). Treatment with each individual agent (200 mg/kg MP470.HCl, 46.2 mm3/d; 20 mg/kg irinotecan, 38.53 mm3/d; 5 mg/kg cisplatin, 33.8 mm3/d) reduced the tumor growth rate below that of vehicle-treated mice (78.04 mm3/d). […] In contrast, when MP470.HCl and cisplatin were used in combination, the tumor growth rate was reduced to 10.22 mm3/d. However, the 100 mg/kg dose of MP470.HCl in combination with cisplatin caused enhanced toxicity and most animals in this group died during the 21-day treatment period. The enhanced toxicity was related to the level of the dose used, so a subsequent study was conducted using half the dose, 50 mg/kg/day as described below.

[6] = system: Erk phosphorylation in Panc-1 Pancreas Cancer Cells; experiment: Erk phosphorylation after PMA stimulation; format: cell-based; details: PMA-stimulated cells; compared to PMA alone and PD98059; hydrochloride
Source text: FIG. 11 illustrates the Erk phosphorylation changes in Panc-1 Pancreas Cancer Cells after MP470 hydrochloride exposure
Regulation of Erk phosphorolation—MP470.HCl activity was screened against potential biomarkers, including proteins, such as Erk that are activated downstream of c-Kit. Erk was selected from potential candidate markers to evaluate changes in protein phosphorylation in treated cancer cell lines because MP470 appeared to regulate this event. […] Exposure to PMA is known to rapidly stimulate Erk phosphorylation and was used as a positive control.

[7] = system: Rad51 in A549 non-small cell lung cancer cells; experiment: Rad51 protein level by Western blot in cells; format: cell-based; details: MP470.HCl alone, 24 hrs
Experimental: Rad51 protein levels were also determined in A549 non-small cell lung cancer cells using combinations with DNA damaging agents. Cells were treated for 24 hrs with 6.1 μM (IC30 of carboplatin alone) carboplatin in combination with 0.71 μM or 3.82 μM MP470.HCl. Protein lysates were isolated from treated and non-treated cells, separated by SDS-PAGE, and transferred to nitrocellulose. […] The increase in Rad51 due to carboplatin treatment was reduced by 26% when treated in combination with 0.71 μM MP470.HCl and by 42% with 3.82 μM MP470.HCl

DMS-114 SCLC cells = experiment: Sensitization of SCLC cells to etoposide; format: cell-based; details: Homo sapiens; DMS-114, single agent
Experimental: Therefore, to determine if MP470 would increase sensitivity to etoposide treatment, SCLC cells were treated with the agents individually and in combination. […] Two sub-IC50 doses of MP470.HCl were tested in combination with etoposide to evaluate possible synergism and a resulting lower IC50 value for etoposide in each of the cell lines.

Compound | mortality at the low dose [1] | logP [2] | pKa (apparent ionization constant) ([3]; 30% (v/v) methanol) | pKa (apparent ionization constant) ([3]; 60% (v/v) methanol) | pKa (apparent ionization constant) ([3]; 90% (v/v) methanol) | apparent pKa ([3]; aqueous solution, extrapolated from pKa values in methanol-water) | maximally tolerated dose [4] [mg/kg] | animals that died ([5]; 200 mg/kg MP470.HCl group, Day 1) | tumor growth rate ([5]; 200 mg/kg qd oral in corn oil (vehicle 78.04)) [mm3/d] | Outcome: tumor growth ([5]; OVCAR-3, PO 100 or 200 mg/kg, qd × 28, corn oil, hydrochloride) | level of Erk phosphorylation (P-Erk) [6] | Rad51 expression [7] | IC50 (DMS-114 SCLC cells) [nM]
S=C(NCc1ccc2c(c1)OCO2)N1CCN(c2ncnc3c2oc2ccccc23)CC1 [MP470, 4-[1]benzofuro[3,2-d]pyrimidin-4-yl-N-(1,3-benzodioxol-5-ylmethyl)piperazine-1-carbothioamide] | the third rat died after dosing | 2.3 | 6.81 | 7.09 | 7.10 | 6.7 | 20 | – | – | – | – | – | –
Cl.S=C(NCc1ccc2c(c1)OCO2)N1CCN(c2ncnc3c2oc2ccccc23)CC1 [MP470.HCl, 4-[1]benzofuro[3,2-d]pyrimidin-4-yl-N-(1,3-benzodioxol-5-ylmethyl)piperazine-1-carbothioamide hydrochloride] | – | – | – | – | – | – | – | One | 46.2 | Dose dependency | reduced the level of Erk phosphorylation; also recorded: reduced the level of P-Erk below that of PD98059 | did not alter the expression of Rad51 | 980

Source: US8445502B2, “Pharmaceutical formulations comprising salts of a protein kinase inhibitor and methods of using same” (Astex Pharmaceuticals, Inc., priority 2007, dated 2013)
